Measured values from PMC10224536 (Molecules, 2023).

What was measured:
[1] = molecular target: T1, human recombinant αSYN fibrils (Homo sapiens, UniProt P37840); assay: Competition binding assay against [^3H]SIL26 on αSYN fibrils
Protocol: (§4) The concentrations of αSYN fibrils and Aβ1-42 fibrils as above were used.
(§5) Plates were incubated on a shaker (MaxQ 6000, Thermo Fisher Scientific Inc., Marietta, OH, USA) at 50 rpm for 2 h at 37 °C, covered by removable sealing tape (PerkinElmer, Waltham, MA, USA). Vacuum filtration and read-out were performed as previously reported [18]. Briefly, a glass fiber Filtermat B (PerkinElmer, Waltham, MA, USA) incubated with 0.5% polyethylenimine (PEI; Sigma Aldrich Chemie GmbH, Munich, Germany) for 30 min at 4 °C prior to filter harvesting was used with a FilterMate Harvester (PerkinElmer, Waltham, MA, USA). Melt-on scintillator sheets (MeltiLex B/HS, PerkinElmer, Waltham, MA, USA) were melted onto dried filters. Accumulation of tritium was counted in a liquid scintillation Wallac MicroBeta TriLux counter (PerkinElmer, Waltham, MA, USA) at two minutes/well.

[2] = molecular target: T2, synthetic human Aβ1-42 fibrils (Homo sapiens, UniProt P05067); assay: Competition binding assay against [^3H]MODAG−001 on Aβ1-42 fibrils; conditions: competition vs 1 nM [^3H]MODAG−001, Aβ1-42 fibrils 1 µM; mean ± SEM; read-out: Aβ—Ki [^3H]MODAG−001
T2 construct: Synthetic lyophilized human Aβ1-42 peptide; purchased EMC Microcollections, Tuebingen, Germany; host or cells: chemical synthesis
Protocol: (§1) The generation of Aβ1-42 fibrils was adapted from Bagchi et al. and described by Kuebler et al.. Synthetic lyophilized human Aβ1-42 peptide (5 mg) with >90% purity (EMC Microcollections, Tuebingen, Germany) was dissolved in DMSO (221.5 µL). […] . The monomers were incubated in an Eppendorf Thermomixer at 37 °C with shaking at 800 rpm for 72 h to induce aggregation. Generated fibrils were sonicated for three minutes in a water bath (Elmasonic S 60 H, Elma Schmidbauer GmbH, Singen, Germany). The final products were aliquoted, frozen on dry ice, and stored at −80 °C until use.
(§2) Plates were incubated on a shaker (MaxQ 6000, Thermo Fisher Scientific Inc., Marietta, OH, USA) at 50 rpm for 2 h at 37 °C, covered by removable sealing tape (PerkinElmer, Waltham, MA, USA). Vacuum filtration and read-out were performed as previously reported. Briefly, a glass fiber Filtermat B (PerkinElmer, Waltham, MA, USA) incubated with 0.5% polyethylenimine (PEI; Sigma Aldrich Chemie GmbH, Munich, Germany) for 30 min at 4 °C prior to filter harvesting was used with a FilterMate Harvester (PerkinElmer, Waltham, MA, USA). Melt-on scintillator sheets (MeltiLex B/HS, PerkinElmer, Waltham, MA, USA) were melted onto dried filters. Accumulation of tritium was counted in a liquid scintillation Wallac MicroBeta TriLux counter (PerkinElmer, Waltham, MA, USA) at two minutes/well.
(§3) . Data points were fitted using non-linear regression analysis in GraphPad Prism (GraphPad Software, Inc., Version 8.4.0, San Diego, CA, USA).

[3] = molecular target: T2, synthetic human Aβ1-42 fibrils; assay: Competition binding assay against [^3H]SIL26 on Aβ1-42 fibrils
Protocol: as §1, §2, §3

[4] = molecular target: T1, human recombinant αSYN fibrils; assay: Competition binding assay against [^3H]MODAG−001 on αSYN fibrils; conditions: for αSYN—Ki [^3H]MODAG−001: competition vs 1 nM [^3H]MODAG−001, αSYN fibrils 50 nM, mean ± SEM
Protocol: as §4, §5

[5] = molecular target: Aβ; conditions: FDA-approved Aβ PET tracers; cited from earlier work
[6] = molecular target: αSYN; conditions: carbon-11 labeled PET tracer; cited from earlier work
[7] = competition vs [^3H]SIL26 (7 nM), αSYN fibrils 35 nM, mean ± SEM

T2 sequence (P05067 672-713 limits assumed): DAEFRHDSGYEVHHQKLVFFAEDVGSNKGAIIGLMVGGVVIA

Row | SMILES | Ki [1] | Ki [2] | Ki [3] | Ki [4] | other results
1 | COc1ccc2c(c1)Sc1cc(-c3cc(-c4ccccc4)n[nH]3)ccc1N2 [DAP1a, 3-Methoxy-7-(3-phenyl-1H-pyrazol-5-yl)-10H-phenothiazine] | 186 ± 145 nM | 10.5 ± 0.9 nM | 10.7 nM | 289 ± 159 nM | 
2 | COc1ccc2c(c1)Sc1cc(-c3cc(-c4ccccn4)n[nH]3)ccc1N2 [DAP1b, 3-Methoxy-7-(3-(pyridin-2-yl)-1H-pyrazol-5-yl)-10H-phenothiazine] | 90.1 ± 56.8 nM | 10.3 ± 0.8 nM | 7.6 nM | 69.9 ± 14.9 nM | 
3 | COc1ccc2c(c1)Sc1cc(-c3cc(-c4cccc(F)c4)n[nH]3)ccc1N2 [DAP1c, 3-(3-(3-Fluorophenyl)-1H-pyrazol-5-yl)-7-methoxy-10H-phenothiazine] | > 400 nM | 15.9 ± 2.4 nM | 1 nM | > 400 nM | 
4 | FCCOc1ccc2c(c1)Sc1cc(-c3cc(-c4ccccc4)n[nH]3)ccc1N2 [DAP2a, 3-(2-Fluoroethoxy)-7-(3-phenyl-1H-pyrazol-5-yl)-10H-phenothiazine] | > 400 nM | 7.7 ± 1.7 nM | 25.8 ± 5.8 nM | 144 ± 49.5 nM | 
5 | FCCOc1ccc2c(c1)Sc1cc(-c3cc(-c4ccccn4)n[nH]3)ccc1N2 [DAP2b, 3-(2-Fluoroethoxy)-7-(3-(pyridin-2-yl)-1H-pyrazol-5-yl)-10H-phenothiazine] | > 400 nM | 12.2 ± 1.7 nM | 65.8 ± 56.4 nM | 107 ± 31.4 nM | 
6 | FCCOc1ccc2c(c1)Sc1cc(-c3cc(-c4cccc(F)c4)n[nH]3)ccc1N2 [DAP2c, 3-(2-Fluoroethoxy)-7-(3-(3-fluorophenyl)-1H-pyrazol-5-yl)-10H-phenothiazine] | > 400 nM | 8 ± 1.3 nM | 3.1 ± 2.1 nM | 212 ± 93.8 nM | 
7 | COc1cccc(Sc2cc(-c3cc(-c4ccccc4)n[nH]3)ccc2N)c1 [DAP3a, 2-((3-Methoxyphenyl)thio)-4-(3-phenyl-1H-pyrazol-5-yl)aniline] |  | > 400 nM | 86.1 nM |  | αSYN—Ki [^3H]SIL26 [1, 7]: no competition ^a; αSYN—Ki [^3H]MODAG−001 [4]: no competition
8 | COc1cccc(Sc2cc(-c3cc(-c4ccccn4)n[nH]3)ccc2N)c1 [DAP3b, 2-((3-Methoxyphenyl)thio)-4-(3-(pyridin-2-yl)-1H-pyrazol-5-yl)aniline] |  | > 400 nM |  |  | αSYN—Ki [^3H]SIL26 [1, 7]: no competition ^a; αSYN—Ki [^3H]MODAG−001 [4]: no competition
9 | COc1cccc(Sc2cc(-c3cc(-c4cccc(F)c4)n[nH]3)ccc2N)c1 [DAP3c, 4-(3-(3-Fluorophenyl)-1H-pyrazol-5-yl)-2-((3-methoxyphenyl)thio)aniline] |  | > 400 nM |  |  | αSYN—Ki [^3H]SIL26 [1, 7]: no competition ^a; αSYN—Ki [^3H]MODAG−001 [4]: no competition
10 | CNc1ccc(/C=C/c2ccc(OCCOCCOCCF)cc2)cc1 [Florbetaben] |  |  |  |  | Ki [5]: 6.7 ± 0.3 nM
11 | CNc1ccc(/C=C/c2ccc(OCCOCCOCCF)nc2)cc1 [Florbetapir] |  |  |  |  | Kd [5]: 3.72 ± 0.3 nM
12 | CNc1ccc(-c2nc3ccc(O)cc3s2)cc1F [Flutemetamol] |  |  |  |  | Ki [5]: 0.74 ± 0.38 nM
13 | CN(C)c1ccc(-c2cc(-c3ccnc(Br)c3)n[nH]2)cc1 [MODAG−001, reference compound] |  |  |  |  | Ki ([1]; read-out: αSYN—Ki [^3H]SIL26, competition vs [^3H]SIL26 (7 nM), αSYN fibrils 35 nM, mean ± SEM): 10.8 nM; Kd [6]: 0.6 ± 0.1 nM
14 | CN(C)c1ccc(-c2cc(-c3cccc(Br)c3)[nH]n2)cc1 [[^11C]anle253b] |  |  |  |  | IC50 [6]: 1.6 nM
